{"source": "paper PMC2424174", "about": "“Suppression of Tumor Growth and Angiogenesis by a Specific Antagonist of the Cell-Surface Expressed Nucleolin” (PLoS ONE, 2008)", "key": {"HUVECs": {"test_system": "HUVECs", "test": "HUVEC migration assay (modified Boyden chamber)", "type": "cell-based, human", "conditions": "VEGF165; 1 µM HB-19 or 0.1 µM mAb MS-3; 4 h, 37°C; two independent experiments", "procedure": "Figure 6 Inhibition of in vitro and in vivo angiogenesis by HB-19. (A) HB-19 inhibits proliferation of HUVECs. Twenty-four hours after seeding HUVECs in 2% FBS, cells were stimulated by 0.25 nM VEGF165, in the absence or presence of 1 µM HB-19 or 0.1 µM anti-nucleolin mAb MS-3 as indicated. After 72 h, cell number was determined by crystal violet staining. The data are reported as the mean of triplicate samples. (B) HB-19 inhibits migration of HUVECs. Cell migration was studied using a modified Boyden chamber. Cells were incubated (4 h at 37°C) with VEGF165, HB-19, or anti-nucleolin mAb MS-3 as above. Cells that migrated through the pore to the lower filter surface were counted and are shown as number per microscopic field at ×100 magnification. […] Tubular network structures were quantified using phase contrast microscopy (×100). […] Quantification of endothelial cell invasion into the Matrigel was determined and is expressed as a mean of five fields per section from 3 Matrigel-plug sections per mouse. The results are expressed as the mean of five mice per group. […]\nHUVEC migration assays were performed using a 24-well chemotaxis chamber (Transwell, Corning Costar, France). […] The cells that had migrated through the pores to the lower filter surface were counted in three random high power fields in each well (magnification 100×). […]"}, "athymic nude mice": {"test_system": "athymic nude mice", "conditions": "mouse, in vivo", "quoted_text": "Inhibitory action of HB-19 was tested against established human breast carcinoma xenografts in the athymic nude mice. For this purpose, mice were inoculated subcutaneously with MDA-MB-231 or MDA-MB-435 cells that proliferate into palpable tumors in 2 weeks. Tumor bearing mice were then treated with HB-19 (Figure 8A, B) or control antitumoral reagents such as tamoxifen and 5-fluouracil (5-FU). The mice were administered 3 times per week with various drugs, during which time tumor-volume was measured by a caliper every third or fourth day. At the end of experiment, tumor-bearing mice were sacrificed, blood was collected for analysis, and the liver, lungs and spleen were removed for histological analysis.\n4-week old female athymic nude Mice (Janvier, Le Genest St Isle, France) were injected subcutaneously in the right flank (MDA-MB-231) or in the mammary fat pad (MDA-MB-435) in 0.1 ml PBS. When the tumor reached about 40 mm^3, the mice were separated randomly in several groups. Administration of HB-19 in PBS (5 mg/kg body weight) was either by intraperitoneal, subcutaneous or peritumoral injections three times per week. Tumor volume was measured along two major axes with calipers. Tumor volume (mm^3) was calculated as follows: V = 4/3×π×R1 ^2×R2, where R1 is radius 1, R2 is radius 2 and R1<R2."}, "nucleolin": {"test_system": "nucleolin", "test": "Nucleolin expression in HB-19 treated MDA-MB-231 cells (immunoblot / immunofluorescence)", "type": "cell-based, human", "conditions": "for reduction of surface/cytoplasmic nucleolin: 10 µM HB-19, 37°C, vs untreated, immunoblot band intensity", "procedure": "Figure 2 HB-19 binds nucleolin expressed on the surface of tumor cells and causes reduction of cytoplasmic/surface but not nuclear nucleolin. (A) HB-19/Btn forms a stable complex with nucleolin expressed on the surface of cells. MDA-MB-231 cells were incubated (45 min, 20°C) with 0, 1, 2, 4, 8 and 12 µM of HB-19/Btn before preparation of surface/cytoplasmic (i.e., nucleus-free) and nuclear extracts, [28]. Samples of surface nucleolin (purified using surface/cytoplasmic extracts from 2×10^7 cells) and crude surface/cytoplasmic and nuclear extracts (from 2×10^6 cells) were analyzed by immunoblotting for the detection of nucleolin using mAb D3. (B) Specific reduction of surface/cytoplasmic nucleolin in HB-19 treated cells. MDA-MB-231 cells were cultured (at 37°C) with 10 µM of HB-19 for 4, 24 and 48 hours before preparation of cytoplasmic and nuclear extracts. Material from 2×10^6 cells (Untreated or HB-19 treated cells as indicated − or + signs, respectively) was analyzed by immunoblotting for the detection of nucleolin. Sections of the gel at the position of the nucleolin bands are presented. […] The intensity of nucleolin protein bands quantified by using the NIH image software indicated 75% and 93% reduction of surface/cytoplasmic nucleolin in HB-19 treated cells at 24 and 48 hours, respectively, compared to the corresponding untreated cells. (C) HB-19 binds the cell surface and enters in the cytoplasm but not the nucleus. MDA-MB-231 cells were incubated at 20°C (for HB-19 Binding) or 37°C (for HB-19 Entry) with 5 µM of HB-19/Btn for 1 hour before fixation in PFA or PFA-Triton, respectively. Fixed cells were successively incubated with rabbit anti-biotin and goat Texas Red-conjugated anti-rabbit IgG and the nuclei were colored with DAPI. Scans corresponding to the cross-section of cells are shown, each with or without the DAPI. (D) Nucleolar nucleolin is not affected in HB-19 treated cells. MDA-MB-231 cells cultured in the absence (Control Cells) or presence of 10 µM of HB-19 for 48 hours (HB-19 Treated Cells) were fixed in PFA-Triton and processed for fluorescence microscopy.\nCells washed in phosphate-buffered saline (PBS) were lysed in buffer E (20 mM Tris–HCl, pH 7.6, 150 mM NaCl, 5 mM MgCl2, 0.2 mM phenylmethylsulfonyl fluoride (PMSF), 5 mM β-mercaptoethanol, aprotinin (1000 U/ml) and 0.5% Triton X-100) and the nuclei were pelleted by centrifugation (1000g for 5 min). […] Aliquots of crude cell extracts were diluted in 2 fold concentrated electrophoresis sample buffer containing SDS, heated and analyzed by SDS- polyacrylamide gel electrophoresis (PAGE). […]"}}, "data": [{"substance": "pseudo-tripeptide Lysψ(CH2N)-Pro-Arg coupled to a template (H2NLys-Lys-Lys-Gly-Pro-Lys-Glu-Lys-AhxCONH2) [HB-19, pseudopeptide presenting pentavalently the pseudo-tripeptide Lysψ(CH2N)-Pro-Arg coupled to a template]", "values": [{"measurement": "inhibition of HUVEC migration", "setting": "HUVECs", "value": "inhibited dramatically both of these events down to levels comparable to that of unstimulated cells"}, {"measurement": "effect on body weight and blood cell counts", "setting": "athymic nude mice", "value": "no effect on body weight and on blood cell counts"}, {"measurement": "effect on tissues at autopsy", "setting": "athymic nude mice", "value": "no apparent effect on various tissues compared to control mice"}, {"measurement": "level and nucleolar localization of nuclear nucleolin", "setting": "nucleolin; 10 µM HB-19, 24–48 hours", "value": "without apparent modification"}, {"measurement": "reduction of surface/cytoplasmic nucleolin", "setting": "nucleolin; 24 hours", "value": 75, "unit": "%"}, {"measurement": "reduction of surface/cytoplasmic nucleolin", "setting": "nucleolin; 48 hours", "value": 93, "unit": "%"}, {"measurement": "expression of other cytoplasmic proteins", "setting": "nucleolin; 10 µM HB-19, stained gel", "value": "not affected"}]}]}
